The values that follow come from patent US8318899B2, “Lytic domain fusion constructs and methods of making and using same” (Board of Supervisors of Louisiana State University and …, priority 2008, dated 2012).

In assay [1] the test system is MCF-7 xenograft. Nature of the assay: MCF-7 breast cancer xenograft. In kind it is in vivo, nude mice. As to conditions: 2 × 3 wk, 19 d, growth delay. The protocol:
In vivo efficacy studies were conducted as monotherapy, or a combination therapy with standard of care treatments in nude mice bearing human breast cancer xenografts: MDA-MB435S.luc (s.c.), MCF-7 (estrogen receptor alpha positive), human ovarian cancer xenografts: OVCAR-3, (s.c.), human prostate cancer xenografts: PC-3 (androgen receptor negative).
PHOR 18-LHRH (338613) Combination therapies were conducted in a MCF-7 breast cancer xenograft models.
Mice were sacrificed one week after the last injection and blood collected for chemistry panel, tumor weights and body weights were recorded. Part of the tumors were fixed in PBS buffered 10% formalin for histological evaluation.

The subject of assay [2] is MDA-MB-435 cells. Nature of the assay: Fluorescence microscopy, MDA-MB-435 breast cancer cells. In kind it is cell-based, human. As to conditions: 10 μM, 5 minutes exposure. Here is the method:
In brief, human breast cancer cells (MDA-MB435, passage #252) were seeded onto culture dishes. The following markers were introduced prior to adding EP100: DRAQ5™ (Alexis Corporation)—blue—was used for staining of the nucleus and MitoTracker® Red CMXRos (M7512) (Molecular Probes, Inc. OR) were applied for visualizing intact mitochondria. Cell membranes were stained with wheat germ alexa fluor green conjugates (Molecular Probes, Inc. OR).
Cells were loaded first with Mitotracker dye, according to the manufacturers recommendation. […] Culture dishes with saline only served as controls. The supernatant was removed and the remaining cells prepared for fluorescence microscopy imaging.

Assay [3] concerns PC-3 xenograft. Nature of the assay: PC-3 prostate cancer xenograft. In kind it is in vivo, Nu/Nu mice. Here is the method:
PC-3 xenografts untreated cause significant weight loss in mice.
In brief, Nu/Nu male mice, outbred strain, age 6 weeks (Charles River) were injected subcutaneously with a PC-3 cells/Matrigel suspension (1×10^6 cells/mouse). Treatment was started on day 15 after tumor cell injection when the tumors were established and continued on days 22 and 29. […]
A group of 12 tumor bearing mice was sacrificed on day 15 and served as baseline group. All mice were necropsied 35 and 36 days after tumor cell injection. Tumor volumes and bodyweights were recorded twice weekly during the study, as well as overall veterinarian examination of mice was conducted.
(§1) Primary tumors, liver, kidney, pancreas, heart, lung, and spleen were collected, fixed in formalin and prepared for histological evaluation. Tumor weights were measured at necropsy, part of the tumors were frozen at −80° C. for LH/CG and LHRH receptor assay determination.

The subject of assay [4] is NIH:OVCAR-3 xenograft. In words: OVCAR-3 ovarian cancer xenograft. In kind it is in vivo. The protocol:
The xenograft model of the OVCAR-3 human ovarian cancer cell line that present functional LHRH receptors was used in this study. OVCAR-3 represents a slow growing xenograft model and secretes the tumor marker (cancer antigen 125, or […]). It's secretion can be used as treatment response and is a measure of drug activity.
In brief, Nu/Nu female mice, inbred strain, age 5 weeks (Harlan-Sprague Dawley) were injected subcutaneously with a NIH:OVCAR-3 cells/Matrigel suspension (4.6×10^6 cells/mouse). Treatment was started on day 33 after tumor cell injection when the tumors were established and continued on days 41 and 47. The doses for the 3 weekly injections were 0.02, 0.2 and 2 mg/kg body weight, given as a single bolus intravenous injection via lateral tail vein administered once a week for three weeks on days 33, 41 and 47. Necropsies were conducted on day 52. Data are presented as mean SEM. Arrows show dosing.
A group of 9 tumor bearing mice was sacrificed on day 33 and served as baseline group. All mice were necropsied 51-52 days after tumor cell injection. Tumor volumes and bodyweights were recorded twice weekly during the study, as well as overall veterinarian examination of mice was conducted.
as §1
As a biomarker for drug activity, CA125 was determined in serum, collected from each individual mouse at necropsy using a Enzyme Linked Immunoassay for quantitative determination of ovarian cancer antigen CA125 (Assay kit Genway, Biotech, Inc. San Diego, Calif., Catalog #40-052-115009, # BC-1013 according to the manufacturer).
LHRH receptor levels were assessed from formalin fixed tumors. Quantitative immunoperoxidase image analysis was conducted with the Ventana Image Analysis System (VIAS) adjunctive computer assisted image analysis system functionally connected to an interactive microscope (Axio Imager). The quantitative analysis was conducted with the program for quantification of Her2/neu receptor that included morphometric and colorimetric analysis. Receptor status results were reported as percentage of cells showing positive staining of the LHRH receptors under the following criteria: 0 non-immunoreactive, 1+: 1-25% positive, 2+: 26-50% positive, 3+: 51-75% positive cells.

Assay [5] relates to OVCAR-3 cells. In kind it is cell-based, human. As to conditions: OVCAR-3 p47, series with increasing incubation time (times not given per value). The text has this:
Membranes of non-cancerous cell lines are neutral and are resistant to cytolytic peptides, in contrast to cancer cell lines, which have a high phosphatidic acid content in their outer membrane.
The breast cancer cell lines studied were MDA-MB435S (estrogen receptor alpha negative), MCF-7 and T47D (estrogen receptor alpha positive), ovarian cancer cell lines (OVCAR-3 and SKOV-3), prostate cancer (LNCaP), the non-malignant breast epithelial cell line MCF-10A and the mouse fibroblast cell line NIH:3T3.
Cells were seeded into 96 well plates at a density of 10,000 cells/well. […] Controls contained USP saline or 0.1% TritonX-100™ as reference for 0 and 100% cell death, respectively. […] Cell viability was assessed through formazan conversion assay (MTT assay, (CellTiter 96 Aqueous One, Promega # G3582). Formazan conversion was determined using a BioRad Benchmark Plus microplate spectrophotometer dual wavelengths at 490/630 nm at room temperature).
Data were calculated as fraction of absorption in TritonX-100™ containing wells representing 100% cell death versus 0% cell death in saline containing wells. Cytotoxicity was determined as IC50 using GraphPad Prism version 5.01 for Windows, GraphPad Software, San Diego Calif. […] 4 wells of each individual set of two 96 well plates were compared and analyzed. Statistical analysis for significance was determined by a two-tailed Student's T-test.

By IC50 is commonly meant the concentration at which inhibition is half-maximal. A low value points to greater potency. Take “KFAKFAKKFAKFAKKFAKQHWSYGLRPG [Phor18-LHRH]”: in assay [1], the “Median Tumor Weight vs Saline P < 0.05 (dose)” value was 0.02 mg/kg growth. Besides, the “effect on plasma membrane (fluorescence microscopy)” value in assay [2] is “disintegration of the plasma membrane”. The “Median Tumor Weight vs Baseline p < 0.05 (dose)” value in assay [3] (PC-3 xenograft, 1 × 3 wk, 21 d) was 0.2 mg/kg; in assay [4] (OVCAR-3 xenograft, 1 × 3 wk, 20 d), 0.2 mg/kg. The “tumor volume during treatment” value in assay [3] (Phor18-LHRH 0.002-2 mg/kg, CLIP71 5 mg/kg) is “Tumor volumes decreased during treatment”; in assay [4] (Phor18-LHRH 0.02-2 mg/kg, CLIP71 2 mg/kg, cisplatinum 10 mg/kg), “Tumor volumes decreased during treatment”. Besides, the “dose with significant necrosis in tumor sections” value in assay [4] (H&E) is listed as 0.02 mg/kg. Besides, the “serum CA125” value in assay [4] (greatest at 0.2 and 2 mg/kg (p<0.0002 vs saline)) is reported as “CA125 secretion was reduced”. For the same sequence, in assay [4] (mouse, in vivo), the “tumor weights at necropsy” value is on record as “Tumor free mice were found”. In addition, the IC50 in assay [5] came to 500 nM.
